IC50 data for 17 compounds are collected here from patent US20250051327A1, “MALT-1 MODULATORS” (EXSCIENTIA AI LIMITED, priority 2020, published 2025).

The experiment relates to IL-2 secretion by human effector memory T cells (TEM). Put plainly: Effector memory T cells IL-2 release assay. It counts as cell-based. To be noted: T-cell; human CD4+ effector memory T cells, CD3/CD28 bead stimulation, 24 h; read-out: CD4TC IL2 IC50. As for the experimental part: Effector Memory T Cells IL-2 Release Assay
Test compound-mediated inhibition of NFκB signalling in T cells was assessed by quantification of the IL-2 secretion by human effector memory T cells (TEM) upon treatment and stimulation. Human TEM cells were isolated from buffy coats of healthy donors obtained from the French blood bank. First, peripheral blood mononuclear cells (PBMC) were purified from buffy coats diluted 1:1 with DPBS (Gibco, cat #14190-094) by Pancoll (PAN BIOTECH, cat #P04-60500) density gradient centrifugation at 400×g for 20 minutes. TEM cells were further enriched by negative immuno-magnetic cell sorting using a human CD4+ Effector Memory T Cell Isolation Kit (Miltenyi, cat #130-094-125) according to the manufacturer's instructions. Aliquots of 3×10E6 purified TEM cells were kept frozen in Cryo-SFM medium (PromoCell, cat #C-29912) in gas phase nitrogen until used. Cell purity was verified by flow cytometry analysis of 200 000 PFA-fixed cells previously labelled with monoclonal antibodies anti-CD4-PerCP-Cy5.5 (BD Pharmigen, cat #332772), anti-CD8-V500 (BD Biosciences, cat #561617), anti-CD14-Pacific Blue (Biolegend, cat #325616), anti-CD45 RA-FITC (Biolegend, cat #304106) and anti-CCR7-APC (in CD4+ Effector Memory T Cell Isolation Kit, Miltenyi, cat #130-094-125).
TEM cells were resuspended in complete RPMI medium composed of: RPMI 1640 (Gibco, cat #31870-025), 10% heat inactivated fetal bovine serum (Sigma, cat #F7524), 2 mM GlutaMAX (Gibco, cat #35050-038), 1 mM sodium pyruvate 100× (Gibco, cat #11360-039), 1% MEM non-essential amino acids solution (Gibco, cat #11140-035) and 100 U/mL penicillin, 100 μg/mL streptomycin (Sigma-Aldrich, cat #11074440001). 5,000 cells per well were plated onto flat clear bottom 384 well plates (Corning, cat #3770). 5,000 Dynabeads Human T-Activator CD3/CD28 (Gibco, cat #11132D) were added to each well for cell stimulation. Finally, 10 doses of test compound, originally prepared in DMSO by serial semi-log step dilution, were also added to cells in triplicate wells. Final DMSO concentration in wells was 0.1% in a total volume of 100 μL complete medium. Plates were incubated for 24 h at 37° C. in 5% CO2 atmosphere. After incubation, cell suspensions were centrifuged at 400×g and culture supernatants were recovered and stored at −80° C. Cell viability was assessed by flow cytometry after staining the cells with Fixable Viability Dye eFluor 780 (Invitrogen, cat #65-0865-14). IL-2 levels were determined in cell supernatants using an HTRF human IL-2 detection kit (Cisbio, cat #62HIL02PEH). IL-2 data at the different compound doses were fitted to a 4-parameter logistic curve to determine IC50 values, corresponding to the compound concentration leading to 50% reduction of the maximal IL-2 levels observed in each experiment. Viability data were analysed similarly to exclude cytotoxicity as a cause of IL-2 decrease (see Table 1).
Broadly, the IC50 is the midpoint of a concentration-inhibition curve. Consider `C[C@H]1CCN(c2ccc([C@H](N(C)C(=O)[C@H]3CC[S@](=N)(=O)CC3)C(F)(F)F)cc2)c2cnc3cc(F)nn3c21` (relative stereo) [CPD0074553, (1rel s, 4rel s)1-imino-N-methyl-1-oxo-N-[(1S)-2,2,2-trifluoro-1-[4-[(13 rel S)-4-fluoro-13-methyl-2,3,7,10-tetrazatricyclo[7.4.0.0^2,6]trideca-1(9),3,5,7-tetraen-10-yl]phenyl]ethyl]thiane-4-carboxamide], for which the IC50 is 162 nM.

For `CN(C(=O)C1CCS(=O)(=O)CC1)[C@@H](c1ccc(N2CC[C@]3(CCOC3)c3c2cnc2cc(Cl)nn32)cc1)C(F)(F)F` [CPD0073763, N-[(1S)-1-[4-[(13rel-S)-4-chlorospiro[2,3,7,10-tetrazatricyclo[7.4.0.0^2,6]trideca-1(9),3,5,7-tetraene-13,3′-tetrahydrofuran]-10-yl]phenyl]-2,2,2-trifluoro-ethyl]-N-methyl-1,1-dioxo-1λ^6-thiane-4-carboxamide], the IC50 stood at 109 nM.

As to `CN(C(=O)[C@@H]1CCN(C(=O)CC#N)C1)[C@@H](c1ccc(N2CCCc3c2cnc2cc(Cl)nn32)cc1)C(F)(F)F` [CPD0073190, (3rel-R)-N-[(1S)-1-[4-(4-chloro-2,3,7,10-tetrazatricyclo[7.4.0.0^2,6]trideca-1(9),3,5,7-tetraen-10-yl)phenyl]-2,2,2-trifluoro-ethyl]-1-(2-cyanoacetyl)-N-methyl-pyrrolidine-3-carboxamide], the IC50 was 239 nM.

With `CN(C(=O)[C@H]1C[C@@H]([S@@+](C)(=N)[O-])C1)[C@@H](c1ccc(N2CCCc3c2cnc2cc(Cl)nn32)cc1)C(F)(F)F` [CPD0073223, (1R,3s)-N-[(1S)-1-(4-{4-chloro-2,3,7,10-tetraazatricyclo[7.4.0.0^2,6]trideca-1(9),3,5,7-tetraen-10-yl}phenyl)-2,2,2-trifluoroethyl]-3-[(S)-imino(methyl)oxo-λ^6-sulfanyl]-N-methylcyclobutane-1-carboxamide], the IC50 came to 172 nM.

Regarding `C[C@H]1CCN(c2ccc([C@H](N(C)C(=O)[C@H]3CC[S@@](=N)(=O)CC3)C(F)(F)F)cc2)c2cnc3cc(F)nn3c21` (relative stereo) [CPD0074554, (1rel r, 4rel r)1-imino-N-methyl-1-oxo-N-[(1S)-2,2,2-trifluoro-1-[4-[(13 rel S)-4-fluoro-13-methyl-2,3,7,10-tetrazatricyclo[7.4.0.0^2,6]trideca-1(9),3,5,7-tetraen-10-yl]phenyl]ethyl]thiane-4-carboxamide], the IC50 is 170 nM.

Turning to `CN(C(=O)C1CCS(=O)(=O)CC1)[C@@H](c1ccc(N2CCCc3c2cnc2cc(Cl)nn32)nc1)C(F)(F)F` [CPD0019212, N-[(1S)-1-(6-{4-chloro-2,3,7,10-tetraazatricyclo[7.4.0.0^2,6]trideca-1(9),3,5,7-tetraen-10-yl}pyridin-3-yl)-2,2,2-trifluoroethyl]-N-methyl-1,1-dioxo-1λ^6-thiane-4-carboxamide], the IC50 was found to be 452 nM.

In the case of `COc1ccc2ncc(Nc3ccc([C@H](N(C)C(=O)C4CCS(=O)(=O)CC4)C(F)(F)F)cc3)c([C@H](C)OC)c2n1` (relative stereo) [CPD0019170, N-methyl-1,1-dioxo-N-[(1S)-2,2,2-trifluoro-1-[4-({6-methoxy-4-[(1 rel S)-1-methoxyethyl]-1,5-naphthyridin-3-yl}amino)phenyl]ethyl]-1λ^6-thiane-4-carboxamide], the IC50 amounted to 20 nM.

`COc1ccc2ncc(Nc3ccc([C@H](N(C)C(=O)C4CCS(=O)(=O)CC4)C(F)(F)F)cn3)c([C@@H](C)OC)c2n1` (relative stereo) [CPD0019006, N-methyl-1,1-dioxo-N-[(1S)-2,2,2-trifluoro-1-[6-({6-methoxy-4-[(1 rel S)-1-methoxyethyl]-1,5-naphthyridin-3-yl}amino)pyridin-3-yl]ethyl]-1λ^6-thiane-4-carboxamide]: the IC50 turned out to be 180 nM.

As to `CN(C(=O)C1CCS(=O)(=O)CC1)[C@@H](c1ccc(N2CC3(CC3)Cc3c2cnc2cc(Cl)nn32)cc1)C(F)(F)F` [CPD0022148, N-[(1S)-1-(4-{4′-chloro-2′,3′,7′,10′-tetraazaspiro[cyclopropane-1,12′-tricyclo[7.4.0.0^2,6]tridecane]-1′(9′),3′,5′,7′-tetraen-10′-yl}phenyl)-2,2,2-trifluoroethyl]-N-methyl-1,1-dioxo-1λ^6-thiane-4-carboxamide], the IC50 was determined as 116 nM.

For the compound `COC[C@H]1CCN(c2ccc([C@H](N(C)C(=O)C3CCS(=O)(=O)CC3)C(F)(F)F)cc2)c2cnc3cc(Cl)nn3c21` [CPD0073504, N-[(1S)-1-[4-[(13rel-S)-4-chloro-13-(methoxymethyl)-2,3,7,10-tetrazatricyclo[7.4.0.0^2,6]trideca-1(9),3,5,7-tetraen-10-yl]phenyl]-2,2,2-trifluoro-ethyl]-N-methyl-1,1-dioxo-1λ^6-thiane-4-carboxamide], the IC50 amounted to 88 nM.

As to `COC[C@@]1(C)CCN(c2ccc([C@H](N(C)C(=O)C3CCS(=O)(=O)CC3)C(F)(F)F)cc2)c2cnc3cc(Cl)nn3c21` [CPD0073139, N-[(1S)-1-[4-[(13rel-S)-4-chloro-13-(methoxymethyl)-13-methyl-2,3,7,10-tetrazatricyclo[7.4.0.0^2,6]trideca-1(9),3,5,7-tetraen-10-yl]phenyl]-2,2,2-trifluoro-ethyl]-N-methyl-1,1-dioxo-1λ^6-thiane-4-carboxamide], the IC50 stood at 65 nM.

As for `COc1ccc2ncc(Nc3ccc([C@H](N(C)C(=O)[C@H]4CC[S@+]([O-])CC4)C(F)(F)F)cc3)c([C@H](C)OC)c2n1` (relative stereo) [CPD0072936, (1rel-r,4rel-r)-N-methyl-1-oxo-N-[(1S)-2,2,2-trifluoro-1-[4-({6-methoxy-4-[(1 rel-S)-1-methoxyethyl]-1,5-naphthyridin-3-yl}amino)phenyl]ethyl]-1λ^4-thiane-4-carboxamide], the IC50 was determined as 17 nM.

Take `CN(C(=O)[C@H]1CCN(C(=O)CC#N)C1)[C@@H](c1ccc(N2CCCc3c2cnc2cc(Cl)nn32)cc1)C(F)(F)F` [CPD0073191, (3rel-S)-N-[(1S)-1-[4-(4-chloro-2,3,7,10-tetrazatricyclo[7.4.0.0^2,6]trideca-1(9),3,5,7-tetraen-10-yl)phenyl]-2,2,2-trifluoro-ethyl]-1-(2-cyanoacetyl)-N-methyl-pyrrolidine-3-carboxamide]: the IC50 turned out to be 148 nM.

As for `CN(C(=O)[C@H]1CC[S@](=N)(=O)CC1)[C@@H](c1ccc(N2CC(C)(C)Cc3c2cnc2cc(Cl)nn32)cc1)C(F)(F)F` [CPD0073497, (1rel r,4rel r)-N-[(1S)-1-(4-{4-chloro-12,12-dimethyl-2,3,7,10-tetraazatricyclo[7.4.0.0^2,6]trideca-1(9),3,5,7-tetraen-10-yl}phenyl)-2,2,2-trifluoroethyl]-1-imino-N-methyl-1-oxo-1λ^6-thiane-4-carboxamide], the half-inhibitory concentration (IC50) amounted to 183 nM.

Consider `COc1ccc2ncc(Nc3ccc([C@H](N(C)C(=O)[C@@H]4CCC(=O)N4)C(F)(F)F)cc3)c([C@H](C)OC)c2n1` (relative stereo) [CPD0075580, (2 rel S)-N-methyl-5-oxo-N-[(1S)-2,2,2-trifluoro-1-[4-[[6-methoxy-4-[(1 rel S)-1-methoxyethyl]-1,5-naphthyridin-3-yl]amino]phenyl]ethyl]pyrrolidine-2-carboxamide], for which the IC50 was determined as 35 nM.

`CN(C(=O)[C@H]1CS(=O)(=O)CC12COC2)[C@@H](c1ccc(N2CCCc3c2cnc2cc(Cl)nn32)cc1)C(F)(F)F` [CPD0073975, (8rel-S)-N-[(1S)-1-(4-{4-chloro-2,3,7,10-tetraazatricyclo[7.4.0.0^2,6]trideca-1(9),3,5,7-tetraen-10-yl}phenyl)-2,2,2-trifluoroethyl]-N-methyl-6,6-dioxo-2-oxa-6λ^6-thiaspiro[3.4]octane-8-carboxamide]: the IC50 worked out at 341 nM.

For the compound `COc1ccc2ncc(Nc3ccc([C@H](N(C)C(=O)C4CCS(=O)(=O)CC4)C(F)(F)F)cn3)c(C(C)OC)c2n1` (some centres unmarked) [CPD0019007], the IC50 was 115 nM.
